# Results reported in US20150140002A1, “USE OF A PCSK9 INHIBITOR TO TREAT […]” (Sanofi, priority 2013, published 2015).
# Test system: patients with primary hypercholesterolemia (heFH and non-FH) who are intolerant to statins
# Conditions: in vivo
smiles,measurement,setting,value
CC(C)c1c(C(=O)Nc2ccccc2)c(-c2ccccc2)c(-c2ccc(F)cc2)n1CC[C@@H](O)C[C@@H](O)CC(=O)O [atorvastatin],Cardiac disorders (SOC),human,2 (3.2%) patients (%)
same,Ear and labyrinth disorders (SOC),human,1 (1.6%) patients (%)
same,General allergic TEAEs (MedDRA SMQ Hypersensitivity),human,4 (6.3%) patients (%)
same,Investigations (SOC),human,3 (4.8%) patients (%)
same,Myalgia,human,27%
same,Psychiatric disorders (SOC),human,2 (3.2%) patients (%)
same,Skeletal muscle-related TEAEs (CMQ preferred term),human,25 (39.7%) patients (%)
same,TEAEs,human,54 (85.7%) patients (%)
same,Treatment-emergent SAEs,human,7 (11.1%) patients (%)
same,Treatment-emergent injection site reactions (ISRs),human,1 (1.6%) patients (%)
same,Treatment-emergent neurologic AEs,human,8 (12.7%) patients (%)
same,Treatment-emergent skeletal muscle-related events resulting in early treatment discontinuation,human,13 (20.6%) patients (%)
same,back pain,human,7.9%
same,early termination due to musculoskeletal and connective tissues disorders SOC events,human,14 [22.2%] patients [%]
same,fatigue,human,7.9%
same,headache,human,6.3%
same,insomnia,human,1 (1.6%) reports (%)
same,muscle spasms,human,11.1%
same,muscular weakness,human,6.3%
same,palpitations,human,0 reports (%)
same,paraesthesia,human,6.3%
same,patients who prematurely discontinued study treatment due to a TEAE,human,16 (25.4%) patients (%)
same,patients who prematurely terminated study treatment due to adverse events,human,16 (25.4%) patients (%)
same,rate of AEs,human,86%
same,vertigo,human,1 (1.6%) reports (%)
same,Treatment-emergent neurocognitive disorders,,zero
